Tests used:
[1] = target: T1, Aβ 1-42 (Homo sapiens, UniProt P05067); test: Fluorometric H2O2 assay (inhibition of Abeta H2O2 production); type: biochemical; settings: concentration required to inhibit 50% of Abeta H2O2 production; read-out: H2O2 IC50
T1 construct: The reaction solutions contained Aβ 1-42 at concentrations
Outline: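 Reactions in PBS pH 7.4 at 37 C for 60 min, containing Aβ, copper and test compound. H2O2 output read as fluorescence of HRP-coupled deacetylated DCF. Fluorescence converted to H2O2 concentration via H2O2 standards.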

[2] = tested on: M17 human neuroblastoma cells; test: Cytotoxicity, M17 human neuroblastoma cells; type: cell-based; settings: for Cytotox (% viable) M17 cells at 1 μM: 1 μM test compound; for Cytotox (% viable) M17 cells at 10 μM: 10 μM test compound
Protocol: Assay 3. MTS Assay for Cell Viability
Cell viability is determined using the MTS assay. Culture medium is replaced with fresh neurobasal medium plus B27 supplements minus antioxidants. 1/10th volume MTS solution (Cell Titre 96 Aqueous One, Promega Corporation) and incubated at 37° C., 2 hrs. 200 microliter aliquots are measured with a spectrophotometer at 560 nm.

[3] = target: T2, Abeta:Zn (25:50 μM) Synthetic Aggregations (Homo sapiens, UniProt P05067); test: Disaggregation of Abeta:Zn synthetic aggregates (ThT fluorescence); type: biochemical; settings: for Disaggregation % Aggregate reduction at 5 μM: 5 μM test compound; for EC50: Abeta:Zn 25:50 μM aggregates
T2 construct: PB Compound Mediated Dissolution of Aggregated Abeta 1-42; purchased Keck Laboratory, Yale University School of Medicine
Outline: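 ThT signal (excitation 450 nm, emission 480 nm) measured after compounds at final 1, 5, 10, 25 and 50 μM acted 2 h at 37 degrees on preformed aggregates. Those aggregates came from 24 h rotating incubation of 25 μM Abeta1-42, 50 μM ZnCl2 and 50 μM ThT in PBS pH 6.6.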

[4] = Mice plasma concentration after oral dose; type: in vivo; settings: for Mice plasma concentration: 30 min to 4 h after single or repeat oral dose of 30 mg/kg
[5] = tested on: Aβ deposits; settings: 9 weeks; for Tg Mice % difference from control in Amyloid plaque abundance / Tg Mice % difference from control in insoluble brain amyloid burden / Tg Mice % difference from control in soluble brain amyloid burden: daily oral gavage 30 mg/kg, 13-14 months old transgenic mice
[6] = Toxicity, visual observations in mice; settings: duration and visual observations
[7] = tested on: primary cortical neuronal cultured cells; test: Test compound cytotoxicity, MTS assay, primary cortical neuronal cultures; type: cell-based, mouse; settings: for Cytotox (% viable) Neuronal cells at 1 μM: 1 μM test compound; for Cytotox (% viable) Neuronal cells at 10 μM: 10 μM test compound
Outline: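 Primary cortical neurons were cultured five days in Neurobasal/B27, then exposed on day six to compounds (from 2.5 mM DMSO stocks) in medium minus antioxidants, in triplicate for 4 days at 37° C. Viability was measured by MTS, 2 h at 37° C, absorbance at 560 nm.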

[8] = tested on: dityrosine oligomerization; test: CuTy: inhibition of dityrosine oligomerization; type: biochemical; settings: referenced to in-house standard (set as 100% inhibition)
[9] = tested on: Abeta in extract of post-mortem human AD brain tissue; test: BAS: human brain amyloid solubilization assay; type: biochemical; settings: max effect across the concentration range, referenced to baseline PBS
Outline: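 Plaque-bearing post-mortem AD cortex homogenised in ice-cold PBS pH 7.4; soluble Aβ in 100,000×g supernatant, insoluble Aβ from resuspended pellet. Fractions run on Tris-Tricine SDS-PAGE, immunoblotted with W02, densitometry against synthetic Aβ40 standards.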

T2 sequence (P05067 672-713 limits assumed): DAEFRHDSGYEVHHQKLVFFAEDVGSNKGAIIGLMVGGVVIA
T1 sequence (P05067 672-713 limits assumed): as above

## CCCn1cnc2c(O)c(I)ccc2c1=S [PB 1165]
[1]
  IC50: 890 nM
[2]
  Cytotox (% viable) M17 cells at 1 μM: 96.7%
  Cytotox (% viable) M17 cells at 10 μM: 107.1%
[3]
  Disaggregation % Aggregate reduction at 5 μM: 52%
  EC50: 4700 nM
[4]
  Mice plasma concentration: Up tp 1593 ng/ ml ng/mL
[5]
  Tg Mice % difference from control in Amyloid plaque abundance: Decrease
  Tg Mice % difference from control in insoluble brain amyloid burden: No change
  Tg Mice % difference from control in soluble brain amyloid burden: No change
[6]
  Toxicity at 30 mg/kg: 10 days, none

## O=c1c2c(Cl)cc(Cl)c(O)c2ncn1Cc1cccc(Cn2cnc3c(O)c(Cl)cc(Cl)c3c2=O)n1 [PB 1101]
[1]
  IC50: 4100 nM
[7]
  Cytotox (% viable) Neuronal cells at 1 μM: 89%
  Cytotox (% viable) Neuronal cells at 10 μM: 67%
[2]
  Cytotox (% viable) M17 cells at 1 μM: 94.9%
  Cytotox (% viable) M17 cells at 10 μM: 26.8%
[8]
  CuTy % inhibition of dityrosine oligomerization: 10% inhibition
[3]
  Disaggregation % Aggregate reduction at 5 μM: 45%
[6]
  Toxicity at 30 mg/kg: 10 days, none

## O=c1c2c(Cl)cc(Cl)c(O)c2ncn1Nc1ccc(F)cc1F [PB-1100]
[7]
  Cytotox (% viable) Neuronal cells at 1 μM: 100%
  Cytotox (% viable) Neuronal cells at 10 μM: 92%
[2]
  Cytotox (% viable) M17 cells at 1 μM: 108.1%
  Cytotox (% viable) M17 cells at 10 μM: 80.5%
[8]
  CuTy % inhibition of dityrosine oligomerization: CuTy: 10% inhibition
[3]
  Disaggregation % Aggregate reduction at 5 μM: 42%
[4]
  Mice plasma concentration: Up to 1,130.6 ng/mL
[6]
  Toxicity at 30 mg/kg: 10 days, none

## Br.CCN(CC)Cc1nc2c(O)c(Cl)cc(Cl)c2c(=O)[nH]1 [PB 1128]
[7]
  Cytotox (% viable) Neuronal cells at 1 μM: 100.6%
  Cytotox (% viable) Neuronal cells at 10 μM: 93.7%
[2]
  Cytotox (% viable) M17 cells at 1 μM: 106.5%
  Cytotox (% viable) M17 cells at 10 μM: 99.1%
[8]
  CuTy % inhibition of dityrosine oligomerization: CuTy: 100% inhibition
[3]
  Disaggregation % Aggregate reduction at 5 μM: 41%
[4]
  Mice plasma concentration: Up to 2289 ng/ mL ng/mL
[6]
  Toxicity at 30 mg/kg: 10 days, none

## CC(C)Cn1c(CN(C)C)nc2c(O)c(Cl)cc(Cl)c2c1=O.Cl [PB 1271]
[1]
  IC50: 170 nM
[2]
  Cytotox (% viable) M17 cells at 1 μM: 104.4%
  Cytotox (% viable) M17 cells at 10 μM: 61.5%
[8]
  CuTy % inhibition of dityrosine oligomerization: CuTy: 50% inhibition

## Oc1c(C2CC2)ncc2cccnc12 [PB 1073]
[1]
  IC50: 520 nM
[7]
  Cytotox (% viable) Neuronal cells at 1 μM: 100%
  Cytotox (% viable) Neuronal cells at 10 μM: 98%
[3]
  Disaggregation % Aggregate reduction at 5 μM: 50%
  EC50: 4700 nM
[4]
  Mice plasma concentration: Up to 350 ng/ mL in mice ng/mL
[6]
  Toxicity at 30 mg/kg: 6 days, none

## CC(C)Cn1cnc2c(O)c(I)ccc2c1=O [PB 1152]
[1]
  IC50: 310 nM
[2]
  Cytotox (% viable) M17 cells at 1 μM: 95.7%
  Cytotox (% viable) M17 cells at 10 μM: 71.2%
[3]
  Disaggregation % Aggregate reduction at 5 μM: 56%
  EC50: > 20000 nM
[4]; oral dose 10 mg/kg
  Mice plasma concentration at 10 mg/kg: At 10 mg/kg: Up to 309 ng/ml ng/mL
[6]; 10 mg/kg
  Toxicity at 10 mg/kg: At 10 mg/kg 10 days, none

## CCNCc1ccc2c(Cl)cc(Cl)c(O)c2n1.Cl [PB 1051]
[1]
  IC50: 380 nM
[7]
  Cytotox (% viable) Neuronal cells at 1 μM: 87%
  Cytotox (% viable) Neuronal cells at 10 μM: 56%
[2]
  Cytotox (% viable) M17 cells at 1 μM: 78.3%
  Cytotox (% viable) M17 cells at 10 μM: 44%
[9]
  BAS max effect: 270%
[3]
  Disaggregation % Aggregate reduction at 5 μM: 22.3%
  EC50: > 20000 nM
[4]
  Mice plasma concentration: Up to 403 ng/ mL ng/mL
[5]
  Tg Mice % difference from control in Amyloid plaque abundance: −39%
  Tg Mice % difference from control in insoluble brain amyloid burden: −21%
  Tg Mice % difference from control in soluble brain amyloid burden: slight increase
[6]
  Toxicity at 30 mg/kg: 10 days, none

## O=C1NC(=O)c2cc(-n3cnc4c(O)c(Cl)cc(Cl)c4c3=O)ccc21 [PB 1247]
[1]
  IC50: 560 nM
[2]
  Cytotox (% viable) M17 cells at 1 μM: 101.2%
  Cytotox (% viable) M17 cells at 10 μM: 110.8%
[8]
  CuTy % inhibition of dityrosine oligomerization: CuTy: 150% inhibition
[6]
  Toxicity at 30 mg/kg: 10 days, none

## Br.CN(C)Cc1nc2c(O)c(Cl)cc(Cl)c2c(=O)[nH]1 [PB 1147]
[2]
  Cytotox (% viable) M17 cells at 1 μM: 94.7%
  Cytotox (% viable) M17 cells at 10 μM: 100.3%
[8]
  CuTy % inhibition of dityrosine oligomerization: CuTy: 100% inhibition
[3]
  Disaggregation % Aggregate reduction at 5 μM: 12.5%
  EC50: > 20000 nM
[4]
  Mice plasma concentration: Up tp 642.6 ng/ mL ng/mL
[6]
  Toxicity at 30 mg/kg: 10 days, none

## CCCc1cnc2c(O)c(I)ccn2c1=O [PB 1151]
[1]
  IC50: 330 nM
[2]
  Cytotox (% viable) M17 cells at 1 μM: 80.8%
  Cytotox (% viable) M17 cells at 10 μM: 47.6%
[3]
  Disaggregation % Aggregate reduction at 5 μM: 57%
  EC50: 5600 nM
[4]
  Mice plasma concentration: Up to 11742 ng/ ml ng/mL
[5]; daily oral gavage 3 mg/kg
  Tg Mice Amyloid plaque abundance at 3 mg/kg: No change
  Tg Mice soluble brain amyloid burden at 3 mg/kg: No change
[5]; daily oral gavage 3 mg/kg, ex-outlier
  Tg Mice % difference in insoluble brain amyloid burden at 3 mg/kg: −24%

## O=c1c2c(Cl)cc(Cl)c(O)c2ncn1CCN1CCCC1 [PB 1075]
[7]
  Cytotox (% viable) Neuronal cells at 1 μM: 104%
  Cytotox (% viable) Neuronal cells at 10 μM: 91%
[2]
  Cytotox (% viable) M17 cells at 1 μM: 103.6%
  Cytotox (% viable) M17 cells at 10 μM: 101.3%
[3]
  Disaggregation % Aggregate reduction at 5 μM: 0%
  EC50: > 20000 nM
[4]
  Mice plasma concentration: Up to 520 ng/ mL in mice ng/mL
[5]
  Tg Mice % difference from control in Amyloid plaque abundance: −23%
  Tg Mice % difference from control in insoluble brain amyloid burden: Increase
  Tg Mice % difference from control in soluble brain amyloid burden: decrease
[6]
  Toxicity at 30 mg/kg: 14 days, 1 of 4 death

## CCc1c(O)c(=O)ccn1CC.Cl [PB 1270]
[1]
  IC50: > 10000 nM
[8]
  CuTy % inhibition of dityrosine oligomerization: CuTy: 80% inhibition

## Oc1c(Cl)cc(Cl)c2ccc(-c3ccccn3)nc12 [PB 1052]
[1]
  IC50: 640 nM
[7]
  Cytotox (% viable) Neuronal cells at 1 μM: 55%
  Cytotox (% viable) Neuronal cells at 10 μM: 31%
[9]
  BAS max effect: 212%
[3]
  Disaggregation % Aggregate reduction at 5 μM: 62.8%
  EC50: 3300 nM
[5]
  Tg Mice % difference from control in Amyloid plaque abundance: Decrease insol, Decrease sol, Decrease plaque
  Tg Mice % difference from control in insoluble brain amyloid burden: Decrease insol, Decrease sol, Decrease plaque
  Tg Mice % difference from control in soluble brain amyloid burden: Decrease insol, Decrease sol, Decrease plaque

From patent US9163018B2, “Method of treatment of age-related macular degeneration (AMD)” (Prana Biotechnology Limited, priority 2006, dated 2015)
